The record followed here is US9133235B2, “Macrocyclic antagonists of the motilin receptor for treatment of gastrointestinal dysmotility disorders” (Ocera Therapeutics, Inc., priority 2006, dated 2015).

Structures are written as SMILES.

The target in data set [1] is T1, human motilin receptor (Homo sapiens, UniProt O43193). Nature of the data set: Competitive radioligand binding assay (motilin receptor). The arrangement: purchased PerkinElmer (SignalScreen) 6110544; host or cells: CHO cells, stably transfected; membranes. The following applies: [125I]-motilin competition, membranes of CHO cells with human motilin receptor; read-out: Ki. How it is done: A. Competitive Radioligand Binding Assay (Motilin Receptor)
The competitive binding assay at the human motilin receptor was carried out analogously to assays described in the literature.
• Membranes were prepared from CHO cells stably transfected with the human motilin receptor and utilized at a quantity of 1.5 μg/assay point. [PerkinElmer™ SignalScreen Product #6110544] • [^125I]-Motilin (PerkinElmer, #NEX-378); final concentration: 0.04-0.06 nM • Motilin (Bachem™, #H-4385); final concentration: 1 μM • Multiscreen Harvest plates-GF/B (Millipore™, #MAHFB1H60) • Deep-well polypropylene titer plate (Beckman Coulter™, #267006) • TopSeal-A (PerkinElmer, #6005185) • Bottom seal (Millipore, #MATAH0P00) • MicroScint-0 (PerkinElmer, #6013611) • Binding Buffer: 50 mM Tris-HCl (pH 7.4), 10 mM MgCl2, 1 mM EDTA, 0.1% BSA Assay Volumes: • 150 μL of membranes diluted in binding buffer • 10 μL of compound diluted in binding buffer • 10 μL of radioligand ([^125I]-Motilin) diluted in binding buffer Final Test Concentrations (N=11) for Compounds: • 10, 5.0, 2.0, 1.0, 0.50, 0.20, 0.10, 0.050, 0.020, 0.010, 0.0050 μM. Compound Handling:
Compounds were provided frozen on dry ice at a stock concentration of 10 mM diluted in 100% DMSO and stored at −20° C. until the day of testing. On the test day, compounds were allowed to thaw at room temperature and than diluted in assay buffer according to the desired test concentrations. Under these conditions, the maximum final DMSO concentration in the assay was 0.5%.
In deep-well plates, diluted cell membranes (1.5 μg/mL) are combined with 10 μL of either binding buffer (total binding, N=5), 1 μM motilin (non-specific binding, N=3) or the appropriate concentration of test compound. The reaction is initiated by addition of 10 μL of [^125I]-motilin (final conc. 0.04-0.06 nM) to each well. Plates are sealed with TopSeal-A, vortexed gently and incubated at room temperature for 2 hours. The reaction is arrested by filtering samples through pre-soaked (0.3% polyethyleneimine, 2 h) Multiscreen Harvest plates using a Tomtec Harvester, washed 9 times with 500 μL of cold 50 mM Tris-HCl (pH 7.4), and than plates are air-dried in a fumehood for 30 minutes. A bottom seal is applied to the plates prior to the addition of 25 μL of MicroScint-0 to each well. Plates are than sealed with TopSeal-A and counted for 30 sec per well on a TopCount Microplate Scintillation and Luminescence Counter (PerkinElmer) where results are expressed as counts per minute (cpm).
Data are analyzed by GraphPad™ Prism® (GraphPad Software, San Diego, Calif.) using a variable slope non-linear regression analysis.
[formula] where total and non-specific binding represent the cpm obtained in the absence or presence of 1 μM motilin, respectively.

For data set [2], the target named is T1, human motilin receptor. Briefly: Aequorin functional assay (motilin receptor). The class given is cell-based. Set-up: host or cells: CHO-K1 cells co-expressing Gα16 and mitochondrially targeted Aequorin. The note with it: functional activity, antagonist testing vs motilin 0.5 nM (EC80). The protocol:
B. Aequorin Functional Assay (Motilin Receptor)
The evaluation of compounds of the invention for functional activity can be conducted according to literature methods or as described below. (Carreras, C. W.; Siani, M. A.; Santi, D. V.; Dillon, S. B. Anal. Biochem. 2002, 300, 146-151.)
• Membranes were prepared using AequoScreen™ (EUROSCREEN, Belgium) cell lines expressing the human motilin receptor (cell line ES-380-A; receptor accession #AF034632). This cell line is constructed by transfection of the human motilin receptor into CHO-K1 cells co-expressing Gα16 and the mitochondrially targeted Aequorin (Ref. #ES-WT-A5). • Motilin (Bachem, #H-4385) • Assay buffer: DMEM-F12 (Dulbeccoe's Modified Eagles Medium) with 15 mM HEPES and 0.1% BSA (pH 7.0) • Coelenterazine (Molecular Probes™, Leiden, The Netherlands) Final Test Concentrations (N=5) for Compounds: • 10, 3.16, 1.0, 0.316, 0.10 μM. Compound Handling:
Compounds were provided as dry films at a quantity of approximately 1.2 μmol in pre-formatted 96-well plates. Compounds were dissolved in 100% DMSO at a concentration of 10 mM and stored at −20° C. until further use. Daughter plates were prepared at a concentration of 500 μM in 30% DMSO with 0.1% BSA and stored at −20° C. until testing. On the test day, compounds were allowed to thaw at room temperature and than diluted in assay buffer according to the desired test concentrations. Under these conditions, the maximum final DMSO concentration in the assay was 0.6%.
Cells are collected from culture plates with Ca^2+ and Mg^2+-free phosphate buffered saline (PBS) supplemented with 5 mM EDTA, pelleted for 2 minutes at 1000×g, resuspended in assay buffer (see above) at a density of 5×10^6 cells/mL and incubated overnight in the presence of 5 μM coelenterazine. After loading, cells were diluted with assay buffer to a concentration of 5×10^5 cells/mL.
For agonist testing, 50 μL of the cell suspension was mixed with 50 μL of the appropriate concentration of test compound or motilin (reference agonist) in 96-well plates (duplicate samples). The emission of light resulting from receptor activation was recorded using the Functional Drug Screening System 6000 ‘FDSS 6000’ (Hamamatsu Photonics K. K., Japan).
For antagonist testing, an approximate EC80 concentration of motilin (i.e. 0.5 nM; 100 μL) was injected onto the cell suspension containing the test compounds (duplicate samples) 15-30 minutes after the end of agonist testing and the consequent emission of light resulting from receptor activation was measured as described in the paragraph above.
Results are expressed as Relative Light Units (RLU). Concentration response curves were analyzed using GraphPad™ Prism® (GraphPad Software, San Diego, Calif.) by non-linear regression analysis (sigmoidal dose-response) based on the equation E=Emax/(1+EC50/C)n where E is the measured RLU value at a given agonist concentration (C), Emax is the maximal response, EC50 is the concentration producing 50% stimulation and n is the slope index. For agonist testing, results for each concentration of test compound were expressed as percent activation relative to the signal induced by motilin at a concentration equal to the EC80 (i.e. 0.5 nM). For antagonist testing, results for each concentration of test compound were expressed as percent inhibition relative to the signal induced by motilin at a concentration equal to the EC80 (i.e. 0.5 nM).

Another data set relates to Caco-2 cells. Briefly: Caco-2 permeability. It counts as in vitro ADME, human. The following applies: for Papp A to B / Papp B to A: 10 μM, 60 min, 37° C.; for Papp A to B: apical to basolateral; for Papp B to A: basolateral to apical. From the text:
H. Determination of Caco-2 Permeability
The Caco-2 cell line, derived from a human colorectal carcinoma, has become an established in vitro model for the prediction of drug absorption across the human intestine. (Sun, D.; Yu, L. X.; Hussain, M. A.; Wall, D. A.; Smith, R. L.; Amidon, G. L. Curr. Opin. Drug Discov. Devel. 2004, 7, 75-85; Bergstrom, C. A. Basic Clin. Pharmacol. Toxicol. 2005, 96, 156-61; Balimane, P. V.; Han, Y. H.; Chong, S. AAPS J 2006, 8, E1-13; Shah, P.; Jogani, V.; Bagchi, T.; Misra, A. Biotechnol. Prog. 2006, 22, 186-198) When cultured on semi-permeable membranes, Caco-2 cells differentiate into a highly functionalized epithelial barrier with remarkable morphological and biochemical similarity to the small intestinal columnar epithelium. Fully differentiated cell monolayers can be used to assess the membrane transport properties of novel compounds.
Permeability across the Caco-2 cell layer was determined by growing the cells on a membrane placed between two (donor and acceptor) chambers. Drug candidates are typically added to the apical (A) side of the cell layer and their appearance in the basolateral (B) side is measured over incubation time. Permeability in this direction represents intestinal absorption. Permeability may also be determined from the basolateral to the apical side of the Caco-2 cell. […]
Permeability (10 μM) for compounds of the invention in the apical to basolateral and basolateral to apical direction were tested in duplicate. Samples will be collected from the donor and acceptor chambers at the beginning (0 min) and following 60 min of incubation at 37° C. and stored frozen at −70° C. until bioanalysis. Samples for each test compound generated from the Caco-2 permeability assay were further analyzed by LC-MS-MS. The permeability of [^3H]-mannitol and [^3H]-propranolol were determined in parallel as controls.
The permeability coefficient (Papp) of each compound and radiolabeled standard was determined using the following equation:
[formula] where dQ/dT represents the permeability rate, Ci denotes the initial concentration in the donor compartment, and A represents the surface area of the filter. Ci is determined from the mean concentration of duplicate samples taken prior to addition to the donor compartment. Permeability rates were calculated by plotting the cumulative amount of compound measured in the acceptor compartment over time and determining the slope of the line by linear regression analysis. The duplicate and mean apical to basolateral and basolateral to apical Papp's were reported for each compound and standard.

T1 sequence (O43193 whole entry): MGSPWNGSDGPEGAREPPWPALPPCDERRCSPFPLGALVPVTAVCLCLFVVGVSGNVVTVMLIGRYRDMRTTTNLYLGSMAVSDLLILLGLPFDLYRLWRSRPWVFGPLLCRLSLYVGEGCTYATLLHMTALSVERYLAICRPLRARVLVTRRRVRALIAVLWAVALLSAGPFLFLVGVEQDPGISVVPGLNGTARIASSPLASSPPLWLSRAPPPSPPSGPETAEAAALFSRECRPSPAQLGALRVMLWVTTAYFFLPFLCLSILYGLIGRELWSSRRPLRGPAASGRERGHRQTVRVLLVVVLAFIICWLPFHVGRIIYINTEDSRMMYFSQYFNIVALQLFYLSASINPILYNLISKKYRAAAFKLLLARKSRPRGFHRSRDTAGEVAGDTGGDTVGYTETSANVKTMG

On to `CNC[C@@H]1NC(=O)[C@@H](C(C)C)NC(=O)[C@@H](Cc2cccc(F)c2)N[C@@H](C)COc2ccccc2CCCNC1=O` [Compound 548], for which the Ki on human motilin receptor [1] was no more than 10 nM. In addition, the IC50 on human motilin receptor [2] is no more than 10 nM.
For the molecule `CC(C)[C@H]1NC(=O)[C@@H](Cc2cccc(F)c2)N[C@@H](C)COc2ccccc2C[C@H](C)CNC(=O)[C@H](CNc2ncccn2)NC1=O` [Compound 550], the inhibition constant Ki at human motilin receptor [1] was no more than 10 nM. On human motilin receptor [2], this molecule registered an IC50 of no more than 1 nM.
Regarding `CC(C)[C@H]1NC(=O)[C@@H](Cc2cccc(F)c2)N[C@@H](C)COc2ccccc2CCCNC(=O)[C@H](CC2CC2)NC1=O` [Compound 554], in the data set on Caco-2 cells, the “Papp A to B” value was found to be 15 cm/sec × 10^−6 and the “Papp B to A” value is recorded as 18 cm/sec × 10^−6.
For the molecule `C[C@H]1COc2ccccc2CCCNC(=O)[C@H](CC2CC2)NC(=O)[C@@H](C2CC2)NC(=O)[C@@H](Cc2cccc(F)c2)N1` [Compound 555], on human motilin receptor [1], the Ki is no more than 10 nM. This molecule also displayed an IC50 against human motilin receptor [2] of no more than 1 nM.
The matching figures for `CCC[C@@H]1NC(=O)[C@@H](C)NC(=O)[C@@H](Cc2cccc(F)c2)N[C@@H](C)COc2ccccc2CCCNC1=O` [Compound 557]: no more than 10 nM and no more than 10 nM.
The matching figures for `CCC[C@@H]1NC(=O)[C@@H](C(C)C)NC(=O)[C@@H](Cc2cccc(F)c2)N[C@@H](C)COc2cnccc2CCCNC1=O` [Compound 565]: no more than 10 nM and no more than 10 nM.
The corresponding values for `COC[C@@H]1NC(=O)[C@@H](C(C)C)NC(=O)[C@@H](Cc2cccc(F)c2)N[C@@H](C)COc2ccccc2CCCNC1=O` [Compound 569] are no more than 10 nM and no more than 10 nM.
On to `CCC[C@@H]1NC(=O)[C@@H](C(C)C)NC(=O)[C@@H](Cc2cccc(F)c2)N[C@@H](C)COc2ccccc2C[C@H](C)CNC1=O` [Compound 570], for which the Ki on human motilin receptor [1] is no more than 10 nM. Also, the IC50 on human motilin receptor [2] is no more than 1 nM.
The matching figures for `CCC[C@@H]1NC(=O)[C@@H](C(C)C)NC(=O)[C@@H](Cc2cccs2)N[C@@H](C)COc2ccccc2CCCNC1=O` [Compound 571]: no more than 10 nM and no more than 10 nM.
The corresponding values for `CCC[C@@H]1NC(=O)[C@@H](C(C)C)NC(=O)[C@@H](Cc2ccsc2)N[C@@H](C)COc2ccccc2CCCNC1=O` [Compound 572] are no more than 10 nM and no more than 1 nM.
Consider `CCC[C@@H]1NC(=O)[C@@H](C(C)C)NC(=O)[C@@H](Cc2cccc(F)c2)N[C@@H](C)COc2cccnc2CCCNC1=O` [Compound 573], for which the Ki on human motilin receptor [1] is no more than 100 nM. Besides, the IC50 at human motilin receptor [2] was no more than 10 nM.
The matching figures for `CCC[C@@H]1NC(=O)[C@@H](C(C)C)NC(=O)[C@@H](Cc2cccc(F)c2)N[C@@H](C)COc2ncccc2CCCNC1=O` [Compound 574]: no more than 100 nM and no more than 1000 nM.
In the case of `CC(C)[C@H]1NC(=O)[C@@H](Cc2ccc(Cl)cc2)NCCOc2ccccc2CCCNC(=O)[C@H](CN(C)C)NC1=O` [Compound 580], in the data set on Caco-2 cells, the “Papp A to B” value came out at 5 cm/sec × 10^−6 and the “Papp B to A” value stood at 7 cm/sec × 10^−6.
Consider `CC(C)[C@H]1NC(=O)[C@@H](Cc2cccc(Cl)c2)NCCOc2ccccc2C[C@H](C)CNC(=O)[C@H](CC2CC2)NC1=O` [Compound 585], for which the Ki on human motilin receptor [1] was no more than 10 nM. This molecule also showed an IC50 against human motilin receptor [2] of no more than 10 nM.
As for `CC(C)[C@H]1NC(=O)[C@@H](Cc2cccc(Cl)c2)NCCOc2ccccc2C[C@@H](C)CNC(=O)[C@H](CC2CC2)NC1=O` [Compound 586], on human motilin receptor [1], the Ki was no more than 100 nM. Further, the IC50 on human motilin receptor [2] was no more than 100 nM.
Turning to `CC(C)[C@H]1NC(=O)[C@@H](Cc2cccc(Cl)c2)NCCOc2ccccc2C(C)(C)CCNC(=O)[C@H](CC2CC2)NC1=O` [Compound 590], the Ki on human motilin receptor [1] was no more than 100 nM. Besides, in the data set with Caco-2 cells, the “Papp A to B” value amounted to 2 cm/sec × 10^−6 and the “Papp B to A” value turned out to be 11 cm/sec × 10^−6. The “B to A/A to B” value in the data set with Caco-2 cells (ratio of Papp) was 6.
